Experimental data as given in patent US7642251B2, “Compounds for the treatment of hepatitis C” (Bristol-Myers Squibb Company, priority 2007, dated 2010).

Key:
HCV NS5B = molecular target: T1, HCV NS5B (Hepatitis C virus genotype 1b, UniProt Q9WMX2); test: Modified HCV NS5B RdRp enzyme assay (preincubation protocol); type: biochemical; conditions: preincubation protocol; read-out: IC50
T1 construct: The cDNA encoding the NS5B protein of HCV, genotype 1b; made in house; host or cells: E. coli BL21(DE3)
T1 sequence (Q9WMX2 2420-2992): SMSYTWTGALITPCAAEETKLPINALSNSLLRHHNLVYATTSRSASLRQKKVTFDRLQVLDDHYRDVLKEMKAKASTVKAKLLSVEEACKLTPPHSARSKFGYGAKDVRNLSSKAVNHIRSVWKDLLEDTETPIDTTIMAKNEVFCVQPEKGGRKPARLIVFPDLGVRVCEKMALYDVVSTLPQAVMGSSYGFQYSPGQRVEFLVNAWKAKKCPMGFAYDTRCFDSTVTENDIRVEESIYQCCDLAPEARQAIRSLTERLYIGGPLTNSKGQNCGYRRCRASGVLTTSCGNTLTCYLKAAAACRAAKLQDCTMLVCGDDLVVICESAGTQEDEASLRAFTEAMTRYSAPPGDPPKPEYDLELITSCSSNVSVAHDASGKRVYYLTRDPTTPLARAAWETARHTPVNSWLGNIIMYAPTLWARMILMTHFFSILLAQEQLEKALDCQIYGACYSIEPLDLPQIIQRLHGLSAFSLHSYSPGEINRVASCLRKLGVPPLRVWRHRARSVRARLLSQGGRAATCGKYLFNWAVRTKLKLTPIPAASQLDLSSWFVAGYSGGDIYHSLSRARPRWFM
Description: HCV NS5B RdRp cloning, expression, and purification. The cDNA encoding the NS5B protein of HCV, genotype 1b, was cloned into the pET21a expression vector. The protein was expressed with an 18 amino acid C-terminal truncation to enhance the solubility. The E. coli competent cell line BL21(DE3) was used for expression of the protein. Cultures were grown at 37° C. for ˜4 hours until the cultures reached an optical density of 2.0 at 600 nm. The cultures were cooled to 20° C. and induced with 1 mM IPTG. Fresh ampicillin was added to a final concentration of 50 μg/ml and the cells were grown overnight at 20° C.
Cell pellets (3 L) were lysed for purification to yield 15-24 mgs of purified NS5B. The lysis buffer consisted of 20 mM Tris-HCl, pH 7.4, 500 mM NaCl, 0.5% triton X-100, 1 mM DTT, 1 mM EDTA, 20% glycerol, 0.5 mg/ml lysozyme, 10 mM MgCl2, 15 ug/ml deoxyribonuclease I, and Complete™ protease inhibitor tablets (Roche). After addition of the lysis buffer, frozen cell pellets were resuspended using a tissue homogenizer. To reduce the viscosity of the sample, aliquots of the lysate were sonicated on ice using a microtip attached to a Branson sonicator. The sonicated lysate was centrifuged at 100,000×g for 1 hr at 4° C. and filtered through a 0.2 μm filter unit (Corning).
The protein was purified using three sequential chromatography steps: Heparin sepharose CL-6B, polyU sepharose 4B, and Hitrap SP sepharose (Pharmacia). The chromatography buffers were identical to the lysis buffer but contained no lysozyme, deoxyribonuclease I, MgCl2 or protease inhibitor and the NaCl concentration of the buffer was adjusted according to the requirements for charging the protein onto the column. Each column was eluted with a NaCl gradient which varied in length from 5-50 column volumes depending on the column type. After the final chromatography step, the resulting purity of the enzyme is >90% based on SDS-PAGE analysis. The enzyme was aliquoted and stored at −80° C.
Standard HCV NS5B RdRp enzyme assay. HCV RdRp genotype 1b assays were run in a final volume of 60 μl in 96 well plates (Costar 3912). The assay buffer is composed of 20 mM Hepes, pH 7.5, 2.5 mM KCl, 2.5 mM MgCl2, 1 mM DTT, 1.6 U RNAse inhibitor (Promega N2515), 0.1 mg/ml BSA (Promega R3961), and 2% glycerol. All compounds were serially diluted (3-fold) in DMSO and diluted further in water such that the final concentration of DMSO in the assay was 2%. HCV RdRp genotype 1b enzyme was used at a final concentration of 28 nM. A polyA template was used at 6 nM, and a biotinylated oligo-dT12 primer was used at 180 nM final concentration. Template was obtained commercially (Amersham 27-4110). Biotinylated primer was prepared by Sigma Genosys. 3H-UTP was used at 0.6 μCi (0.29 μM total UTP). Reactions were initiated by the addition of enzyme, incubated at 30° C. for 60 min, and stopped by adding 25 μl of 50 mM EDTA containing SPA beads (4 μg/μl, Amersham RPNQ 0007). Plates were read on a Packard Top Count NXT after >1 hr incubation at room temperature.
Modified HCV NS5B RdRp enzyme assay. A modified enzyme assay was performed essentially as described for the standard enzyme assay except for the following: The biotinylated oligo dT12 primer was precaptured on streptavidin-coated SPA beads by mixing primer and beads in assay buffer and incubating at room temperature for one hour. Unbound primer was removed after centrifugation. The primer-bound beads were resuspended in 20 mM Hepes buffer, pH 7.5 and used in the assay at final concentrations of 20 nM primer and 0.67 μg/μl beads. Order of addition in the assay: enzyme (14 nM) was added to diluted compound followed by the addition of a mixture of template (0.2 nM), 3H-UTP (0.6 μCi, 0.29 μM), and primer-bound beads, to initiate the reaction; concentrations given are final. Reactions were allowed to proceed for 4 hours at 30° C.
IC50 values for compounds were determined using seven different [I]. […]

HCV replicon cells = test: HCV replicon FRET assay; type: cell-based; conditions: Hepatitis C virus; FRET assay; read-out: EC50
Text: FRET Assay Preparation. To perform the HCV FRET screening assay, 96-well cell culture plates were used. The FRET peptide (Anaspec, Inc.) (Taliani et al., Anal. Biochem. 1996, 240, 60-67) contains a fluorescence donor, EDANS, near one end of the peptide and an acceptor, DABCYL, near the other end. The fluorescence of the peptide is quenched by […] resonance energy transfer (RET) between the donor and the acceptor, but as the NS3 protease cleaves the peptide the products are released from RET quenching and the fluorescence of the donor becomes apparent. The assay reagent was made as follows: 5× cell Luciferase cell culture lysis reagent from Promega (#E153A) diluted to 1× with dH2O, NaCl added to 150 mM final, the FRET peptide diluted to 20 μM final from a 2 mM stock.
To prepare plates, HCV replicon cells, with or without a Renilla luciferase reporter gene, were trypsinized and placed into each well of a 96-well plate with titrated test compounds added in columns 3 through 12; columns 1 and 2 contained a control compound (HCV protease inhibitor), and the bottom row contained cells without compound. The plates were then placed in a CO2 incubator at 37° C.
Assays. Subsequent to addition of the test compounds described above (FRET Assay Preparation), at various times the plate was removed and Alamar blue solution (Trek Diagnostics, #00-100) was added per well as a measure of cellular toxicity. After reading in a Cytoflour 4000 instrument (PE Biosystems), plates were rinsed with PBS and then used for FRET assay by the addition of 30 ul of the FRET peptide assay reagent described above (FRET Assay Preparation) per well. The plate was then placed into the Cytoflour 4000 instrument which had been set to 340 excite/490 emission, automatic mode for 20 cycles and the plate read in a kinetic mode. Typically, the signal to noise using an endpoint analysis after the reads was at least three-fold. Alternatively, after Alamar blue reading, plates were rinsed with PBS, 50 ul of DMEM (high glucose) without phenol red was added and plates were then used for luciferase assay using the Promega Dual-Glo Luciferase Assay System.
Compound analysis was determined by quantification of the relative HCV replicon inhibition and the relative cytotoxicity values. To calculate cytoxicity values, the average Alamar Blue fluorescence signals from the control wells were set as 100% non-toxic. The individual signals in each of the compound test wells were then divided by the average control signal and multiplied by 100% to determine […]. To calculate the HCV replicon inhibition values, an average background value was obtained from the two wells containing the highest amount of HCV protease inhibitor at the end of the assay period. These numbers were similar to those obtained from naïve Huh-7 cells.
The background numbers were then subtracted from the average signal obtained from the control wells and this number was used as 100% activity. The individual signals in each of the compound test wells were then divided by the averaged control values after background subtraction and multiplied by 100% to determine percent activity. EC50 values for a protease inhibitor titration were calculated as the concentration which caused a 50% reduction in FRET or luciferase activity. The two numbers generated for the compound plate, percent cytoxicity and percent activity were used to determine compounds of interest for further analysis.

Compound | IC50 (HCV NS5B) | EC50 (HCV replicon cells)
COc1ccc2c(c1)C=C(c1ccccc1S(=O)(=O)N(C)CCN(C)C)Cn1c-2c(C2CCCCC2)c2ccc(C(=O)NS(=O)(=O)C(C)C)cc21 | 4.58 to 500 nM | 4.58 to 500 nM
COc1ccc2c(c1)C=C(c1ccccc1CN1CCOCC1)Cn1c-2c(C2CCCCC2)c2ccc(C(=O)NS(=O)(=O)C(C)C)cc21 | 4.58 to 500 nM | 4.58 to 500 nM
COc1ccc2c(c1)C=C(c1cccc(OCCN(C)C)c1)Cn1c-2c(C2CCCCC2)c2ccc(C(=O)NS(=O)(=O)C(C)C)cc21 | 4.58 to 500 nM | > 500 nM
